Experimental data: US20190381337A1, “BORON NEUTRON CAPTURE THERAPY SYSTEM” (NEUBORON MEDTECH LTD., priority 2016, published 2019)

Experiments:
U343mga cells [1] = test: Cell uptake of boron compounds (Example 2); assay type: cell-based, human; conditions: for boron content expressed as a function of the total cellular protein, Trial 1 / boron content expressed as a function of the total cellular protein, Trial 2: 6 hours incubation, 5×10^−4 mol/L boron; for boron content expressed as a function of the total cellular protein, Trial 1: 7.2 μg boron/mL media; for boron content expressed as a function of the total cellular protein, Trial 2: 7.7 μg boron/mL media
Description: (§1) An in vitro test of the Phe-BF3 of the Example 1 uses four different human-derived tumor cell lines U343mga, human liver cancer cell line Hep3B, human breast cancer cell line MCF7 and human Sarcoma cell line 4SS. Cells were plated on uncoated tissue culture dishes and incubated at 37° C. in an incubator with humidified air equilibrated with 5% CO2 (the medium was supplemented with 10% FCS and PEST (Penicillin 100 IU/mL and streptomycin […])). For cell passage, cells were trypsinized with trypsin-EDTA (phosphate buffered saline (PBS) with 0.25% trypsin and 0.02% EDTA, no calcium and magnesium).
U343mga cells were plated on Petri dishes at a cell density of 75% and incubated for 6 hours with 1,4-dihydroxyborylphenylalanine (BPA) or Phe-BF3 dissolved in tissue culture medium. Both boron-containing compounds were added at an equimolar concentration relative to the boron content (5×10^−4 mol/L boron) and dissolved in tissue culture medium. Incubation was terminated by removing the boron containing tissue culture medium and adding cold phosphate buffered saline solution (PBS buffer) in order to wash away excess medium from the cells. Cells were immediately harvested by scooping off from the petri dishes using rubber policeman, and collected in cold PBS and pelleted by centrifugation.
Total protein analysis was performed on cell samples according to the Bradford standard procedure. The precipitated cells were subjected to boron analysis by DC-plasmon atomic emission spectroscopy (DCP-AES). The sample (50-130 mg) was digested with sulfuric acid/nitric acid (1/1) at 60° C. Triton X-100 and water were added to give concentrations of 50 mg tissue/mL, 15% total acid v/v, and 5% Triton X-100 v/v. The boron concentration is based on known control sample.

U343mga cells [2] = test: Intracellular retention of boron (Example 4); assay type: cell-based, human; conditions: for Boron content in U343mga cells, 0 h after removal of the boron-containing medium / Boron content in U343mga cells, 2 h after removal of the boron-containing medium / Boron content in U343mga cells, 7 h after removal of the boron-containing medium: 18 hours incubation, 5×10^−4 mol/L boron
Description: U343mga cells were plated on Petri dishes at a cell density of 75% and incubated for 18 hours with 1,4-dihydroxyboron-phenylalanine (BPA) or Phe-BF3 in tissue culture medium. Both boron compounds were added to the tissue culture medium at equimolar concentrations relative to the boron content (5×10^−4 mol/L boron). The incubation was terminated by replacing the boron-containing medium with a boron-free medium. Cell samples were taken at time points 0, 2 and 7 hours, respectively, where the 0 time point represented the time point when the incubation with the boron compound reached just 18 hours.
The cells were washed with cold PBS and immediately harvested by scooping off from the petri dish using rubber policeman, and collected in cold PBS and pelleted by centrifugation. The cell pellets were analyzed for total protein and boron content as described above. With intracellular uptake, the compound of formula (I) retained in the tumor cells was 50% of the total uptake at 7 h after the complete consumption of Ia in the medium.

U343mga = test: Uptake of Phe-BF3 by different tumor cells (Example 3); assay type: cell-based, human
Description: as §1
(§2) Four human-derived, different tumor cell lines: U343mga, Hep3B, MCF7, and 4SS were plated on Petri dishes at 40-50% (low) and 90-100% (high) cell densities, and incubated with Phe-BF3 in tissue culture as described above for 6 hours. Incubation was terminated by removing the boron-containing media and adding cold PBS buffer to wash excess media from the cells. Cells were immediately harvested by scooping off from the petri dishes using rubber policeman, and collected in cold PBS and pelleted by centrifugation. Total protein analysis was performed on cell samples according to the Bradford standard procedure (as described above).

[3] = system: human Sarcoma cell line 4SS; test: as above; assay type: cell-based; conditions: 6 hours
Description: as §1, §2

[4] = system: human breast cancer cell line MCF7; test: as above; assay type: cell-based; conditions: 6 hours
Description: as §1, §2

[5] = system: human liver cancer cell line Hep3B; test: as above; assay type: cell-based; conditions: 6 hours
Description: as §1, §2

[6] = system: mouse fibroblast L-929 cells; test: Cytotoxicity study, MTT colorimetry (Example 5); assay type: cell-based; conditions: for Relative cell proliferation RGR: 5 mmol/L, MTT
Description: The cell culture fluid containing the peptide bovine serum was incubated at 37 C for 24 hours. The passage cultured mouse fibroblast L-929 cells were used to prepare a cell suspension of 1×10^5 cells/mL, and the cell suspension was seeded on a 96-well cell culture plate (100 μl/well) and cultured in a carbon dioxide incubator at 37° C. for 24 hours. After the cells adhere to the wall, the supernatant was removed, the control solution (in absence of compound Ia) was added, and the culture solution of the test group (Phe-BF3 concentration of 5 mmol/L) was exchanged, and the culture was continued in the carbon dioxide incubator at 37° C. After 2 days, MTT solution was added to continue culture for 4 hours. The original solution was aspirated and DMSO was added and shaken for 10 min. The absorbance value was measured with an enzyme-linked immunometric instrument at a wavelength of 630 nm, and the relative proliferation rate (RGR) of the cells was calculated according to the absorbance according to the formula.

| SMILES | boron content expressed as a function of the total cellular protein, Trial 1 (U343mga cells [1]) | boron content expressed as a function of the total cellular protein, Trial 2 (U343mga cells [1]) | Boron content in U343mga cells, 0 h after removal of the boron-containing medium (U343mga cells [2]) [μg boron/g cell pellet] | Boron content in U343mga cells, 2 h after removal of the boron-containing medium (U343mga cells [2]) [μg boron/g cell pellet] | Boron content in U343mga cells, 7 h after removal of the boron-containing medium (U343mga cells [2]) [μg boron/g cell pellet] | boron uptake compared with BPA (U343mga cells [1]; 6 hours) | boron content as a function of the total cellular protein, low cell density (U343mga; U343mga, 40-50% cell density, 6 hours) [μg boron/g cell protein] | boron content as a function of the total cellular protein, high cell density (U343mga; U343mga, 90-100% cell density, 6 hours) [μg boron/g cell protein] | efficiency as boron carrier (U343mga; all four human tumor cell lines at low and high cell densities) | boron content as a function of the total cellular protein, low cell density ([3]; 40-50% cell density) [μg boron/g cell protein] | boron content as a function of the total cellular protein, high cell density ([3]; 90-100% cell density) [μg boron/g cell protein] | boron content as a function of the total cellular protein, low cell density ([4]; MCF7, 40-50% cell density) [μg boron/g cell protein] | boron content as a function of the total cellular protein, high cell density ([4]; MCF7, 90-100% cell density) [μg boron/g cell protein] | boron content as a function of the total cellular protein, low cell density ([5]; 40-50% cell density) [μg boron/g cell protein] | boron content as a function of the total cellular protein, high cell density ([5]; 90-100% cell density) [μg boron/g cell protein] | tumor cell uptake, accumulation, and retention compared with BPA (U343mga cells [2]; summary of Examples 2-4, in vitro) | Relative cell proliferation RGR ([6]; 2 days) [%] | Relative cell proliferation RGR ([6]; 7 days) [%] | cytotoxicity assessment ([6]; graded by RGR (Table 5)) |
| --- | --- | --- | --- | --- | --- | --- | --- | --- | --- | --- | --- | --- | --- | --- | --- | --- | --- | --- | --- |
| N[C@@H](CC1(BO)C=CC(BO)=CC1)C(=O)O (stereo partly drawn) [BPA, 1,4-dihydroxyborylphenylalanine, reference compound] | 62 | 39 | 0.072 | 0 | 0 |  |  |  |  |  |  |  |  |  |  |  |  |  |  |
| [NH3+]C(Cc1ccccc1)[B-](F)(F)F (stereo not drawn) [Phe-BF3] | 549 | 421 | 0.83 | 0.56 | 0.41 | better than boron phenylalanine (BPA) in boron uptake | 102 | 178 | highly efficient boron carrier | 255 | 343 | 101 | 167 | 149 | 207 | superior to BPA in tumor cell uptake, accumulation, and retention | 123 | 102 | no signs of toxicity |
